Where two headings read alike, the source gives them in different places. One block for each molecule: values may come before it.
Columns and labels:
rat mesangial cells [1] = test: Inhibition of high glucose-induced ROS production in rat mesangial cells (DCFH-DA fluorescence); format: cell-based; conditions: for IC50: 3 h, DCFH-DA 50 μM, mean of three experiments, s.d. of log IC50 in brackets; for Antioxidant activity against hyperglycemia-induced ROS generation (in words): concomitant treatment with compound plus high glucose for 3 h, DCFDA assay; for Concentration required for complete inhibition (ROS production reduced to normal levels): high glucose-induced ROS, rat mesangial cells
Protocol: The inhibitory effects of the pyrrolomorpholine spiroketals on high glucose-induced oxidative stress were evaluated in rat mesangial cells (RMC). The rat mesangial cells, obtained from the American Type Culture Collection (CRL-2573), were cultured at 37° C. in Dulbecco's modified Eagle's medium (DMEM) containing 5.6 mM glucose (normal glucose), 10% fetal calf serum (FCS), nonessential amino acids, penicillin/streptomycin under a humidified atmosphere of 95% air and 5% CO2. Rat mesangial cells were seeded in 96-well plates approximately 24 hours before the start of all experiments. For more details on the antioxidant activity assays, see, e.g., Wang et al. Free Radical Biol. Med. 1999, 27, 612-616; Magalhães et al. Anal. Chim. Acta. 2008, 613, 1-19; Peng et al. Org. Lett. 2010, 12, 4932-4935; Hung et al. Am. J. Nephrol. 2009, 29, 192-202.
For each experiment, rat mesangial cells were incubated with pyrrolomorpholine spiroketal compound (0.01, 0.03, 0.1, 0.3, 1, 3, 10, 30, 100, 200 μM) or 1 mM N-acetyl cysteine (NAC, positive control) in the presence of either 5.6 mM (normal glucose, NG) or 30 mM (high glucose, HG) D-glucose for 3 h. RMC were then incubated with 50 μM dichloro-dihydro-fluorescein diacetate (DCFH-DA) for 45 min, and intracellular production of ROS was detected by 2′,7′-dichlorofluorescein (DCF) fluorescence (485 nm excitation, 530 emission) as measured by a microplate reader (SpectraMax M5/M5, Molecular Devices). Values are expressed as percentage of ROS inhibition, where fluorescence from untreated cells under normal glucose conditions was set at 0% and untreated cells under high glucose conditions was set at 100%.

rat mesangial cells [2] = test: DCFDA assay of ROS levels upon exogenous H2O2 treatment; format: cell-based; conditions: 200 μM H2O2, rat mesangial cells
Protocol: Dichlorofluorescin diacetate (DCFDA) assay measured ROS levels upon treatment with 200 μM H2O2.
DCFDA assay measured ROS levels upon treatment with 200 μM H2O2.

[3] = Chemical reactivity towards reactive oxygen and nitrogen species; format: physicochemical; conditions: equimolar concentrations
rat mesangial cells [4] = conditions: cited from earlier work; for Antioxidant activity as reported (in words): high glucose-induced ROS, rat mesangial cells, literature
[5] = cyclic voltametry, Aponick and coworkers; cited from earlier work
mesangial cells = conditions: through inhibition of NADPH oxidase, literature; cited from earlier work
[6] = Rattus norvegicus, Mesangial cell, compound 0-200 μM, high (30 mM) glucose, N-acetyl-cysteine at 1 mM, ***p ≤ 0.001, read-out: Maximum % ROS Inhibition

Structure (SMILES): CC(=O)N[C@@H](CS)C(=O)O [N-acetyl-cysteine]
inhibition at 1000 µM (rat mesangial cells [1]; [6]): 100%

IC50 (rat mesangial cells [1]; compound 0-200 μM, high (30 mM) glucose): 4.9 µM | Reactivity to equimolar H2O2, OH radical and peroxynitrite [3]: unreactive
Structure (SMILES): O=Cc1ccc2n1C[C@]1(C[C@H](O)[C@@H](CO)O1)OC2 [acortatarin A (1), acortatarin A]
Maximum % ROS Inhibition (rat mesangial cells [1]; compound 0-200 μM, high (30 mM) glucose, N-acetyl-cysteine at 1 mM, ***p ≤ 0.001): 100%*** | Antioxidant activity against hyperglycemia-induced ROS generation (in words) (rat mesangial cells [1]): complete inhibition of ROS induction at higher concentrations | Concentration required for complete inhibition (ROS production reduced to normal levels) (rat mesangial cells [1]): 20 µM | Block of the direct effect of exogenous H2O2 on ROS levels (rat mesangial cells [2]): does not block | Antioxidant activity as reported (in words) (rat mesangial cells [4]): complete inhibition of ROS induction at higher concentrations | Antioxidant activity as reported (in words) (rat mesangial cells [4]; listed as Acortatarin A): significantly attenuating high glucose-induced generation of ROS | IC50 (rat mesangial cells [4]; rat mesangial cell model, intracellular ROS levels, read-out: IC50 against hyperglycemia-induced oxidative stress, as recently reported): 4.9 µM | First oxidation potential [5]: +1.74 V | Second oxidation potential [5]: 1.90 V | Effect on high glucose-induced extracellular matrix production (mesangial cells): prevent

Structure (SMILES): O=Cc1ccc2n1CC1(CC(O)C(CO)O1)OC2 [L-acortatarin A]
Antioxidant activity against hyperglycemia-induced ROS generation (in words) (rat mesangial cells [1]): inactive

Structure (SMILES): O=Cc1cccc2c1C[C@]1(C[C@H](O)[C@@H](CO)O1)OC2 [formylbenzene 8, (2S,4S,5R)-4-hydroxy-5-(hydroxymethyl)-4,5-dihydro-3H-spiro[furan-2,3′-isochromane]-5′-carbaldehyde]
inhibition (rat mesangial cells [1]; [6]): 100%

Structure (SMILES): O=Cc1ccc2n1C[C@@]1(OC2)O[C@H](CO)[C@@H](O)[C@@H]1O.c1ccccc1 [Acortatarin B, acortatarin B]
Antioxidant activity as reported (in words) (rat mesangial cells [4]): significantly attenuating high glucose-induced generation of ROS

Structure (SMILES): OC[C@H]1O[C@@]2(Cc3ccccc3CO2)C[C@@H]1O (single isomer, unassigned) [desformylbenzene 7]
inhibition (rat mesangial cells [1]; [6]): 100% | Concentration required for complete inhibition (ROS production reduced to normal levels) (rat mesangial cells [1]): 5 µM | Block of the direct effect of exogenous H2O2 on ROS levels (rat mesangial cells [2]): does not block

IC50 (rat mesangial cells [1]; Rattus norvegicus, Mesangial cell, compound 0-200 μM, high (30 mM) glucose): > 200 µM
Structure (SMILES): O=CC[C@H](O)[C@H](O)CO [2-deoxy-D-ribose]

From patent publication US20210069082A1, “SPIROKETALS AND USES THEREOF” (Memorial Sloan-Kettering Cancer Center, priority 2017, published 2021)
